These results are taken from patent US4678810A, “Medical uses of halogenobenzohenone-oxime derivatives” (Institut de Recherches Chimiques et Biologiques of Appliques, priority 1983, dated 1987).

≈ marks a conversion by molar mass, not a printed value. Where only a bound is given, the exact number is not on record here.

The subject of series [1] is Staphylococcus aureus La 634. As to the kind of experiment: Antibacterial activity in vitro (MIC), dilution technique. In kind it is cell-based. To be noted: LA634. From the text: (§1) The antibacterial activity was studied in vitro according to the usual classical dilution techinque with respect to several strains, in order to determine the minimal inhibiting concentration (M.I.C.) i.e. the minimal bacteriostatic concentration.
(§2) The results thus obtained are tabulated in table II hereinafter, the strains used being those of the catalogues of the "Institut Pasteur" of Paris, France (abbreviation: CIP), the "Centre International de Distribution de Souches et d'Information sur les Types Microbiens de Lausanne" (abbreviation: La) and the "American Type Culture Collection" (abbreviation: ATCC).

Series [2] concerns Staphylococcus aureus London CIP A.238. Described as above. It counts as cell-based.
Excerpt: as §1, §2

Series [3] relates to Diplococcus pneumoniae La 210. The description is as above. In kind it is cell-based. The conditions noted are these: Streptococcus pneumoniae, LA210.
Excerpt: as §1, §2

In series [4] the test system is Staphylococcus aureus La 636. Described as above. In kind it is cell-based. To be noted: LA636.
Excerpt: as §1, §2

A further series concerns Streptococcus La 147. Described as above. In kind it is cell-based. The conditions noted are these: LA147.
Excerpt: as §1, §2

For series [5], the system named is Streptococcus pyogenes CIP. 56.43. Described as above. It counts as cell-based.
Excerpt: as §1, §2

In series [6] the test system is Diplococcus pneumoniae La 209. The series is described as above. It counts as cell-based. The conditions noted are these: Streptococcus pneumoniae, LA209.
Excerpt: as §1, §2

For series [7], the system named is Streptococcus pyogenes CIP. 56.41. Described as above. It counts as cell-based.
Excerpt: as §1, §2

The test system of series [8] is Bacillus subtilis ATCC 6633. The description is as above. In kind it is cell-based. The conditions noted are these: ATCC6633.
Excerpt: as §1, §2

Series [9] deals with Streptococcus faecalis CIP 55.142. Described as above. It counts as cell-based. The conditions noted are these: Enterococcus faecalis, CIP55.
Excerpt: as §1, §2

The test system of series [10] is Streptococcus pyogenes CIP. A 241. Described as above. In kind it is cell-based. To be noted: CIP.A241.
Excerpt: as §1, §2

The test system of series [11] is Streptococcus pyogenes CIP. 56.45. The description is as above. It counts as cell-based.
Excerpt: as §1, §2

Series [12] concerns Streptococcus pyogenes CIP. 56.1. The series is described as above. In kind it is cell-based.
Excerpt: as §1, §2

The subject of series [13] is Streptococcus faecalis CIP 53.152. The series is described as above. It counts as cell-based. To be noted: Enterococcus faecalis, CIP53.
Excerpt: as §1, §2

Series [14] deals with Staphylococcus aureus ATCC 6538 P. The description is as above. To be noted: ATCC6538. It counts as cell-based.
Excerpt: as §1, §2

Series [15] has as its system Staphylococcus aureus La 659. The description is as above. It counts as cell-based. The conditions noted are these: LA659.
Excerpt: as §1, §2

A short description of series [16]: Acute oral toxicity (DL-50), 14-day observation. The conditions noted are these: mouse, in vivo, mice, per os, 14 days observation. On the procedure: (§3) Assays were performed on batches of mice (males and females) weighing each from 18 to 20 g and receiving the compounds to be tested at the doses of 0.5 g/kg, 0.8 g/kg, 1 g/kg, 2 g/kg, 3 g/kg and 4 g/kg per os in an aqueous medium containing 20 g/l of carboxymethylcellulose, the animals being observed during the 14 days following administration.

The subject of another series is Gram+ bacteriae. To be noted: commercialized drug; cited from earlier work.
Series [17] in a line: Tolerance: rectal temperature after oral administration. To be noted: mice, per os, from the dose of 2 g/kg. It counts as in vivo. The procedure: as §3
The nature of series [18]: Tolerance: diarrhoea after oral administration. To be noted: mice, per os. It counts as in vivo. The procedure:
as §3

The nature of series [19]: Tolerance: weight / liver hypertrophy after oral administration. In kind it is in vivo. To be noted: mice, per os, from the dose of 0.8 g/kg. On the procedure: as §3
For series [20] the following is noted: cited from earlier work.
The test system of series [21] is Gram- strains such as Neisseria. Kind of series: Antibacterial activity in vitro, summary for some Gram- strains. In kind it is cell-based.
Excerpt: as §1, §2

Another series has as its system Gram+ strains. Kind of series: Antibacterial activity in vitro, summary for Gram+ strains. The conditions noted are these: compared with B.11. It counts as cell-based, Gram+ bacteriae.
Excerpt: as §1, §2

Details of series [22]: species or system mice. The conditions noted are these: mouse, in vivo. On the procedure: as §3
The subject of series [23] is acute infections of the otorhinolaryngological system and bronchopathies. Kind of series: Clinical assays in acute infections of the otorhinolaryngological system and bronchopathies. It counts as in vivo, human. The conditions noted are these: humans, acute ENT infections and bronchopathies. The procedure: Clinical assays carried out on human beings suffering from infectious disease caused by Gram+ bacteriae and Neisseria Gram- bacteria gave fair and good results, especially when the pharmaceutical composition according to the invention which was administered suitably contained from 0.1 to 95% by weight of at least one compound of the formula I.
For oral administration, the composition is preferably formulated as tablets or gelatine-coated capsules, each tablet or capsule containing from 10 to 200 mg of the active ingredient. For the treatment of infections due to Gram+ bacteriae and Neisseria, such tablets or capsules are suitably administered to human patients at the rate of 2 to 8 tablets or capsules per day, for at least 4 days and preferably from 4 to 7 days, in particular for compound B.602.

With `CC(C)(C)CC(C)(C)c1ccc(O)c(Cc2ccc(Cl)cc2Cl)c1` [Clofoctol, 2-(2,4-dicholrobenzyl)-4-(1,1,3,3-tetramethylbutyl)-phenol], the minimal inhibitory concentration (MIC) in series [1] came to 6 µg/mL (≈ 16.4 µM); in series [2], 3 µg/mL (≈ 8.21 µM); in series [3], 5 µg/mL (≈ 13.7 µM); in series [4] it was 5 µg/mL (≈ 13.7 µM); in the series on Streptococcus La 147 it was 7 µg/mL (≈ 19.2 µM); in series [5], 2 µg/mL (≈ 5.47 µM). In addition, the minimum inhibitory concentration (MIC) in series [6] came out at 4 µg/mL (≈ 10.9 µM); in series [7], 4 µg/mL (≈ 10.9 µM); in [8], 4 µg/mL (≈ 10.9 µM); in [9], 5 µg/mL (≈ 13.7 µM); in [10], 4 µg/mL (≈ 10.9 µM); in [11], 2 µg/mL (≈ 5.47 µM). Further, the MIC in [12] came to 3 µg/mL (≈ 8.21 µM); in series [13], 6 µg/mL (≈ 16.4 µM); in series [14] it was 8 µg/mL (≈ 21.9 µM); in [15], 6 µg/mL (≈ 16.4 µM). In series [16], the LD50 at 336 h turned out to be 2000 mg/kg. In addition, the “effectiveness in infectious diseases caused by Gram+ bacteriae” value with Gram+ bacteriae is recorded as “particularly effective”. Also, the “reduction of rectal temperature” value in series [17] is listed as “reduces the rectal temperature for 48 hours”. Further, in series [18], the “dose at which it begins to induce diarrhoea” value is 800 mg/kg. The liver hypertrophy entry in series [19] was “induces a slight liver hypertrophy”. Also, the hydrosolubility / hydrodispersibility entry in series [20] is listed as “not naturally hydrosoluble nor hydrodispersible”.
Consider `CC(C)(C)CC(C)(C)c1ccc(O)c(C(=NO)c2ccc(Cl)cc2Cl)c1` [Example 1, 2',4'-dichloro-2-hydroxy-5-(1,1,3,3-tetramethylbutyl)-benzophenone-oxime], for which the MIC in series [1] turned out to be 3 µg/mL (≈ 7.61 µM); in [2] it was 1 µg/mL (≈ 2.54 µM); in [3] it was 3 µg/mL (≈ 7.61 µM); in series [4] it was 4 µg/mL (≈ 10.1 µM); in the series with Streptococcus La 147 it was 2 µg/mL (≈ 5.07 µM); in [5], 1 µg/mL (≈ 2.54 µM). Further, the minimum inhibitory concentration (MIC) in [6] was 4 µg/mL (≈ 10.1 µM); in series [7] it was 3 µg/mL (≈ 7.61 µM); in series [8], 1 µg/mL (≈ 2.54 µM); in series [9], 2 µg/mL (≈ 5.07 µM); in [10], 2 µg/mL (≈ 5.07 µM); in [11] it was 1 µg/mL (≈ 2.54 µM). Besides, the MIC in series [12] was 2 µg/mL (≈ 5.07 µM); in series [13], 3 µg/mL (≈ 7.61 µM); in [14], 4 µg/mL (≈ 10.1 µM); in series [15], 5 µg/mL (≈ 12.7 µM). The compound further had a median lethal dose (LD50) at 336 h in series [16] of more than 4000 mg/kg. Also, the “activity against some Gram- strains” value in series [21] is reported as “active against some Gram- strains such as Neisseria”. Also, the “activity against Gram+ strains” value with Gram+ strains is listed as “more active than B.11”. Besides, the “tolerance compared with B.11” value in series [22] was “better tolerated than B.11”. For the same compound, the “clinical result as a bactericidal agent” value in [23] is on record as “very interesting as a bactericidal agent”.

Usually MIC stands for the lowest concentration that inhibits growth of the organism. The low end stands for a more susceptible organism, the high end for a less susceptible organism. What is called LD50 is the dose at which mortality reaches 50%. The low end stands for greater toxicity, the high end for lower toxicity.
